Test results as given in patent US12509437B2, “Substituted thiophene carboxamides and derivatives thereof as microbicides” (Bayer Aktiengesellschaft, priority 2019, dated 2025).

Legend:
[1] = system: Colletotrichum lindemuthianum; test: In vivo preventive test on Colletotrichum lindemuthianum (Anthracnose on bean); conditions: Colletotrichum lindemuthianum, 144 h, sprayed 72 hours before inoculation, evaluated 6 days after inoculation, read-out: efficacy; for pest or weed control at 500 ppm: 500 ppm of active ingredient; for pest or weed control at 125 ppm: 125 ppm of active ingredient
Procedure, shortened: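 Young bean plants were sprayed with compound in acetone/DMSO/Tween diluted in water, then inoculated 72 h later with C. lindemuthianum spores. Incubation was 24 h at 20 °C/100% RH, then 5 days at 20 °C/90% RH. Efficacy scored 6 days post-inoculation: 0% equals solvent-treated control, 100% means no disease.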

Alternaria alternata = Alternaria alternata in vitro cell test; type: cell-based; conditions: 120 h, 5 days incubation, read-out: efficacy (inhibition of fungal growth; no direct activity); for inhibition at 5 ppm: 5 ppm of active ingredient; for inhibition at 20 ppm: 20 ppm of active ingredient
Procedure, shortened: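 A. alternata spores in glucose/peptone/yeast-extract liquid medium were exposed to DMSO-solubilized compound (final DMSO ≤1%). After 5 days incubation, mycelium growth read spectrometrically; inhibition derived from absorbance relative to fungicide-free control wells.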

Peronospora parasitica = test: In vivo preventive test on Peronospora parasitica (Crucifer downy mildew) on cabbage; conditions: Hyaloperonospora parasitica, 120 h, sprayed 72 hours before inoculation, evaluated 5 days after inoculation, read-out: efficacy; for pest or weed control at 31 ppm: 31 ppm of active ingredient; for pest or weed control at 125 ppm: 125 ppm of active ingredient; for pest or weed control at 500 ppm: 500 ppm of active ingredient
Procedure, shortened: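 Young cabbage plants were sprayed with compound in aqueous acetone/DMSO/Tween, then inoculated 72 h later with P. parasitica spores and held 5 days at 20 °C, 100% RH. Efficacy scored 5 days post-inoculation: 0% equals solvent-treated controls, 100% means no disease.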

[2] = system: Pseudomonas syringae pv. tomato; test: Pseudomonas syringae pv. tomato in vitro cell test; type: cell-based; conditions: 20 ppm of active ingredient, 24 h of incubation, read-out: efficacy (inhibition of bacteria growth; no direct activity)
Procedure, shortened: (§1)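 Bacteria from liquid pre-culture diluted to set OD in LB broth and exposed to compounds dissolved in DMSO (final ≤1%). After 24 h, growth read by absorbance; inhibition derived relative to compound-free control wells.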

[3] = system: Pseudomonas syringae pv. tomato; test: In vivo preventive test on Pseudomonas syringae pv. tomato (bacterial speck on tomato); conditions: sprayed 72 hours before inoculation, evaluated 5 or 6 days after inoculation, read-out: efficacy; for pest or weed control at 125 ppm: 125 ppm of active ingredient
Description: The tested active ingredients were prepared by homogenization in a mixture of acetone/Dimethyl sulfoxide/Tween®, and then diluted with water to obtain the desired active material concentration.
The young plants of tomato were treated by spraying the active ingredient prepared as described above. Control plants were treated only with an aqueous solution of acetone/Dimethyl sulfoxide/Tween®.
After 72 hours, the plants were contaminated by spraying the leaves with an aqueous bacteria suspension of Pseudomonas syringae pv. tomato. The contaminated tomato plants were incubated for 4 days in saturated atmosphere at 22° C. day/20° C. night−70% HR and then for 1 or 2 days at 22° C. day/20° C. night at 70-80% relative humidity.
The test was evaluated 5 or 6 days after the inoculation. 0% means an efficacy which corresponds to that of the control plants while an efficacy of 100% means that no disease was observed.

[4] = system: Xanthomonas campestris pv. campestris; test: Xanthomonas campestris pv. campestris in vitro cell test; type: cell-based; conditions: 24 h of incubation, read-out: efficacy (inhibition of bacteria growth; no direct activity); for inhibition at 5 ppm: 5 ppm of active ingredient; for inhibition at 20 ppm: 20 ppm of active ingredient
Procedure, shortened: as §1

[5] = system: salicylate responsive promoter sequence of the PR1 (pathogenesis-related protein I) gene (AT2G14610); test: Induction of defense gene expression in Arabidopsis thaliana (PR1 promoter-GFP reporter plants); type: in vivo; conditions: 72 h, 3rd day after spraying, mock treated leaves set as 1.00, read-out: relative fluorescence value
Procedure, shortened: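 Transgenic A. thaliana carrying GFP under the salicylate-responsive PR1 promoter, grown five days, then sprayed with compounds. Whole-plant fluorescence imaged and quantified on day 3 post-spray, expressed relative to mock-treated leaf background set at 1.00.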

[6] = system: Colletotrichum lindemuthianum; test: Colletotrichum lindemuthianum in vitro cell test; type: cell-based; conditions: 144 h, 5 ppm of active ingredient, 6 days incubation, read-out: efficacy (inhibition of fungal growth; no direct activity)
Procedure, shortened: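 C. lindemuthianum spore suspension grown in liquid glucose/peptone/yeast-extract medium with compound (final DMSO ≤1%). After 6 days, mycelial growth measured by absorbance; inhibition calculated versus fungicide-free control wells.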

Uromyces appendiculatus = test: In vivo preventive test on Uromyces appendiculatus (bean rust); conditions: 240 h, sprayed 72 hours before inoculation, evaluated 10 days after inoculation, read-out: efficacy; for pest or weed control at 31 ppm: 31 ppm of active ingredient; for pest or weed control at 125 ppm: 125 ppm of active ingredient; for pest or weed control at 500 ppm: 500 ppm of active ingredient
Procedure, shortened: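 Young bean plants sprayed with compound in acetone/DMSO/Tween diluted in water, then inoculated 72 h later with spore suspension. Incubated 24 h at 20° C., 100% RH, then 9 days at 20° C., 70-80% RH. Efficacy scored 10 days post-inoculation, 0% = untreated-control level, 100% = no disease.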

[7] = LogP by HPLC on reversed phase columns (EEC directive 79/831 Annex V.A8); type: physicochemical; conditions: reversed phase HPLC columns; method [a]
Procedure, shortened: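 Reversed-phase HPLC, calibrated with straight-chain alkan-2-ones (C3–C16) of known LogP; values by linear interpolation of retention times between successive alkanones. Multiple values from one method are joined by "+"; lambda-max taken from 200–400 nm UV spectra at chromatographic peaks.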

| Compound | pest or weed control at 500 ppm [1] | inhibition at 5 ppm (Alternaria alternata) | inhibition at 20 ppm (Alternaria alternata) | pest or weed control at 31 ppm (Peronospora parasitica) | pest or weed control at 125 ppm (Peronospora parasitica) | pest or weed control at 500 ppm (Peronospora parasitica) | inhibition at 20 ppm [2] | pest or weed control at 125 ppm [3] | inhibition at 5 ppm [4] | inhibition at 20 ppm [4] | fold induction at 300 ppm [5] | inhibition at 5 ppm [6] | pest or weed control at 31 ppm (Uromyces appendiculatus) | pest or weed control at 125 ppm (Uromyces appendiculatus) | pest or weed control at 500 ppm (Uromyces appendiculatus) | chromatographic logP [7] | pest or weed control at 125 ppm [1] | pest or weed control at 500 ppm ([3]; 500 ppm of active ingredient) | fold induction at 75 ppm ([5]; 75 ppm) | pest or weed control at 31 ppm ([1]; 31 ppm of active ingredient) |
| --- | --- | --- | --- | --- | --- | --- | --- | --- | --- | --- | --- | --- | --- | --- | --- | --- | --- | --- | --- | --- |
| CCOC(=O)C(NC(=O)c1sc(Cl)c(Cl)c1C)C1CC1 (centres unmarked) [I.083] | 90 to 100% | ≤ 30% | ≤ 30% | 90 to 100% | 90 to 100% | 90 to 100% | ≤ 30% | 70 to 79% | ≤ 30% | ≤ 30% | > 2 | ≤ 30% | 90 to 100% | 90 to 100% | 90 to 100% | 3.76 | – | – | – | – |
| COC(=O)C(CC(F)F)NC(=O)c1sc(Br)c(Br)c1C (centres unmarked) [I.108] | 90 to 100% | ≤ 30% | ≤ 30% | 70 to 79% | 70 to 79% | 90 to 100% | ≤ 30% | – | ≤ 30% | ≤ 30% | > 2 | – | – | 90 to 100% | 90 to 100% | 3.33 | 80 to 89% | 70 to 79% | > 2 | – |
| COC(=O)C(NC(=O)c1sc(Cl)c(Cl)c1C)c1cccs1 (centres unmarked) [I.165] | – | ≤ 30% | ≤ 30% | 90 to 100% | 90 to 100% | – | ≤ 30% | 80 to 89% | ≤ 30% | ≤ 30% | > 2 | ≤ 30% | 90 to 100% | 90 to 100% | – | 3.81 | 80 to 89% | – | – | 80 to 89% |
